Reference: US20070173538A1 (Alcon, Inc., priority 2005, published 2007)

Tests used:
FGFR = test: Cell-free enzymatic kinase inhibition assay, FGFR; type: biochemical; settings: 1 mM ATP
[1] = Dissolution of compound in molten PEG; type: physicochemical; settings: PEG 3350 and PEG 8000 melted at about 60° C. to 95° C.
Text: The present inventors have discovered that certain active agents have a higher solubility in the presence of PEG than in water. […] This pellet forms a colloidal like suspension when the pellet dissolves in water. Furthermore, using blends of high and low molecular weight PEGs can make erodible gel with the compound uniformly dispersed in it (see examples). This provides an injection dosage form for delivery of insoluble compounds via posterior juxtascleral or intravitreal administration, which enhances the solubility of the compounds and achieves the desired bioavailability. In the formulations of the present invention, the compound forms a solid solution in the matrix of the PEG.

IC50 (FGFR): > 12.5 µM
Solubility in PEG [1]: dissolve completely
Structure (SMILES): Cc1ccc(F)c(NC(=O)Nc2ccc(-c3cccc4[nH]nc(N)c34)cc2)c1 [RTK Inhibitor, N-[4-(3-amino-1H-indazol-4-yl)phenyl]-N′-(2-fluoro-5-methylphenyl)urea]
